The record followed here is publication PMC10381309 (Journal of Fungi, 2023).

Converted amounts (≈) assume the structure as drawn. Where two headings read alike, the source gives them in different places. Bounds are passed on as bounds.

Usually inhibition stands for the change of the read-out against control, counted positive when it falls. By MIC is commonly meant the smallest concentration in the dilution series that meets the test's criterion for growth inhibition.

Holding throughout (assay type): cell-based
Assay [1] relates to Fonsecaea pedrosoi (CFP 00791). The experiment in a line: NIH Clinical Collection screening for antifungal activity (growth inhibition, OD 530 nm). Particulars: 10 µM, CFP00791 Fonsecaea pedrosoi isolate, 72–96 h; for inhibition at 10 µM: read-out: % Growth Inhibition. The procedure:
These substances are part of the NIH Roadmap Molecular Libraries Screening Centers Network screening library, a collection of chemically diverse substances in Phase I-III clinical trials. Each substance was initially diluted to 1 mM in DMSO and stored at −20 °C until use. […] The final DMSO concentration corresponded to 0.5% v/v. The inoculum was prepared according to the protocol for filamentous fungi proposed by the European Committee on Antimicrobial Susceptibility Testing—EUCAST, with minor modifications. […] After growth, conidia were suspended in 3 mL of sterile distilled water with 0.1% Tween 20, vortexed, and the concentration adjusted to the 0.5 McFarland scale. The suspension was then diluted 1:10 in order to obtain a final working inoculum at 2–5 × 10^5 CFU/mL. Next, 100 µL of the inoculum was added to each well and the plates incubated at 35 °C for 72–96 h. Negative and positive controls consisted of culture medium alone and drug-free culture medium with the fungal inoculum previously described, respectively. Plates were read using a microplate reader (Epoch, Biotek, Wenusky, VT, USA) with a 530 nm filter to obtain the optical density. All plates were also visually read to confirm the equipment data. A calculation was performed to obtain the percentage of inhibition of fungal growth, according to the formula: (1 − (OD1/OD2)) × 100, where OD1 = optical density of the fungus in the presence of the drug; and OD2 = optical density of the growth control drug-free well.

Assay [2] relates to different species that cause CBM. The experiment in a line: MIC determination of hit drugs, stated over the panel of CBM agents. From the text:
In this study, eight fungal isolates obtained from the Fiocruz Pathogenic Fungi Collection (CFP) and the American Type Culture Collection (ATCC®) were used. Fonsecaea pedrosoi (CFP 00791) was used throughout the study. This species is one of the main CBM agents worldwide. Cladophialophora carrionii (CFP 00910), Phialophora verrucosa (CFP 00937), Fonsecaea monophora (CFP 00911), Fonsecaea nubica (CFP 00912), Rhinocladiela similis (CFP 00790), Exophiala heteromorpha (ATCC® 28180), and Exophiala dermatitidis (ATCC® 28869) were used to determine the minimum inhibitory concentration (MIC) and in synergism assays. Strains were maintained on potato dextrose agar (PDA) (Sigma Chemical Corporation, St. Louis, MO, USA). Seven-day cultures incubated at 30 °C were used in the assays.
(§1) Minimum inhibitory concentrations (MICs) were determined using the method proposed by the European Committee on Antimicrobial Susceptibility Testing (EUCAST), with minor modifications. Hit drugs were serially diluted (80 μM to 0.15625 μM) in RPMI 1640 (twice concentrated, pH 7; supplemented with 2% glucose) buffered with MOPS in 96-well plates. The inoculums of all strains were prepared following the EUCAST protocol. Plates were incubated at 35 °C for 72–96 h. The MIC of the NCC substances was determined as the lowest concentration capable of inhibiting 100% of fungal growth when compared to the growth control well. MIC values were determined in duplicate.

Assay [3] has as its system Fonsecaea nubica (CFP 00912). The experiment in a line: MIC determination (EUCAST, minor modifications). The note with it: F. nubica; 100% growth inhibition; read-out: MIC. How it is done: as §1
The mark [4] stands for this setting: different species that cause CBM, highest concentration tested 80 µM, read-out: MIC.

For the molecule `Nc1nc(=O)[nH]cc1F` [5-Fluorocytosine], in assay [1], the inhibition at 10 µM was found to be 68%. Consider `O=c1[nH]cc(F)c(=O)[nH]1` [5-Fluorouracil], for which the inhibition at 10 µM in assay [1] was 85%. Regarding `CCCCCCNC(=O)n1cc(F)c(=O)[nH]c1=O` [Carmofur], in assay [1], the inhibition at 10 µM amounted to 100%. As for `CN1C(=O)CC[C@H]1c1cccnc1` [Cotinine (nicotine), Cotinine], the MIC in assay [2] (setting [4]) was above 80 µM. Besides, the inhibition at 10 µM in assay [1] was 71%. For the molecule `Clc1ccc(COC(Cn2ccnc2)c2ccc(Cl)cc2Cl)cc1` (stereo not shown) [Econazole nitrate], the inhibition at 10 µM in assay [1] worked out at 94%. For `C[C@H](N[C@@H](CCc1ccccc1)C(=O)O)C(=O)N1CCC[C@H]1C(=O)O` [Enalaprilat], the MIC entry in assay [2] (different species that cause CBM, highest concentration tested 80 µM) is “above 80 µM”. In assay [1], the “% Growth Inhibition” value was determined as 67%. For `O=C(NCC1CCCCN1)c1cc(OCC(F)(F)F)ccc1OCC(F)(F)F` (stereo not shown) [Flecainide Acetate], the inhibition at 10 µM in assay [1] was found to be 95%.

As to `O=c1[nH]c(=O)n([C@H]2C[C@H](O)[C@@H](CO)O2)cc1F` [Floxuridine], the MIC was above 80 µM in assay [2] (CBM agents except the Fonsecaea nubica isolate, read-out: MIC) and 0.3125 µM (≈ 0.0769 µg/mL) in assay [3]. Moreover, in assay [1], the inhibition at 10 µM was 86%. Regarding `CC(=O)NC[C@H]1CN(c2ccc(N3CCOCC3)c(F)c2)C(=O)O1` [Linezolid], the MIC in assay [2] (setting [4]) is above 80 µM. In addition, in assay [1], the inhibition at 10 µM stood at 87%. Consider `CN1CCCCC1CCN1c2ccccc2Sc2ccc([S+](C)[O-])cc21` (stereo not shown) [Mesoridazine (Serentil), Mesoridazine], for which the inhibition at 10 µM in assay [1] was 86%. Take `Clc1ccc(COC(Cn2ccnc2)c2ccc(Cl)cc2Cl)c(Cl)c1` (stereo not shown) [Miconazole nitrate]: in assay [1], the inhibition at 10 µM stood at 99%.

Regarding `OCCN1C[C@H](O)[C@@H](O)[C@H](O)[C@H]1CO` [Miglitol], the MIC in assay [2] (setting [4]) was above 80 µM. For the same molecule, the inhibition at 10 µM in assay [1] was 90%.

Turning to `CN(C)CC/C=C1/c2ccccc2COc2ccc(CC(=O)O)cc21` [Olopatadine (Patanol), Olopatadine], the inhibition at 10 µM in assay [1] turned out to be 85%. `COCCCOc1ccnc(C[S+]([O-])c2nc3ccccc3[nH]2)c1C` (stereo not shown) [Rabeprazole]: the MIC in assay [2] (setting [4]) was above 80 µM. Besides, the inhibition at 10 µM in assay [1] worked out at 61%. As for `CN[C@H]1CC[C@@H](c2ccc(Cl)c(Cl)c2)c2ccccc21` [Sertraline], in assay [2] (setting [4]), the MIC lay within 10 to 40 µM.

On to `C=CC[C@@H]1/C=C(\C)C[C@H](C)C[C@H](OC)[C@H]2O[C@@](O)(C(=O)C(=O)N3CCCC[C@H]3C(=O)O[C@H](/C(C)=C/[C@@H]3CC[C@@H](O)[C@H](OC)C3)[C@H](C)[C@@H](O)CC1=O)[C@H](C)C[C@@H]2OC` [Tacrolimus], for which the inhibition at 10 µM in assay [1] came out at 89%. As to `CCC(C)n1ncn(-c2ccc(N3CCN(c4ccc(OCC5COC(Cn6cncn6)(c6ccc(Cl)cc6Cl)O5)cc4)CC3)cc2)c1=O` (stereo not shown) [itraconazole], in assay [1], the inhibition at 10 µM is 100%. With Medroxyprogesterone, in assay [1], the “% Growth Inhibition” value was 91%.
